Patent US20080125396A1, “Derivatives of Isothiazol-3(2H)-Thione 1,1-Dioxides as Liver X Receptor Modulators” (AtraZeneca AB, priority 2005, published 2008)

Biological target: T1, LXRα (Homo sapiens, UniProt Q13133)
T1 construct: human LXRalpha (amino acid 205-447); expressed in transfected cells; host or cells: U2/OS osteosarcoma cells electroporated with pSGGAL-LXRalpha (pSG5 vector)
T1 sequence (Q13133 205-447): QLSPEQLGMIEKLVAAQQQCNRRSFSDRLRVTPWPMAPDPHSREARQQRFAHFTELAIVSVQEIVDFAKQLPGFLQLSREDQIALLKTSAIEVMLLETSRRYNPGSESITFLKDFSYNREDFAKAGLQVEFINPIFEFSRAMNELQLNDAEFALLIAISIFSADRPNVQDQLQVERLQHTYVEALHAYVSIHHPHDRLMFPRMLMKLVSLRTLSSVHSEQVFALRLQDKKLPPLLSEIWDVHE
Assay: Transactivation (reporter gene) assay in U2/OS cells
Assay type: cell-based
Conditions: GAL4-LXRalpha LBD luciferase reporter, U2/OS osteosarcoma cells, 48 h
Procedure: Expression vectors were prepared by inserting the ligand binding domain cDNA (complementary DNA) of human LXRalpha (amino acid 205-447) and LXRbeta (amino acid 216-461) in frame with, 3′ to the yeast GAL4 transcription factor DNA binding domain and the nuclear localization signal from the T-antigen of Polyoma Virus in the eucaryotic expression vector pSG5 (Stratagene). The resulting expression vectors pSGGAL-LXRalpha and pSGGAL-LXRbeta were used in cotransfection experiments together with the pGL3 luciferase reporter plasmid containing a minimal SV40 promoter (Promega) and five copies of the UAS GAL4 recognition site. 2.5 μg pSGGAL-LXRalpha or beta were mixed with […] pGL3 5xUAS and 22.5 μg pBluscript (Stratagene) in 0.95 mL ice cold PBS containing approx. 4-9 milj. U2/OS osteosarcoma cells. After a five minute incubation on ice the cell/DNA mixture was electroporated in 0.4 cm cuvettes at 960 μF, 230 V using a BioRad electroporator and diluted to 0.32 milj cells/mL in complete DMEM [Dulbecco's Modified Eagle Medium w/o phenol red, (Gibco 11880-028) including 10% FBS (Foetal Bovine Serum), 1% PEST (Penicillin Streptomycin), 20 mM Hepes, 2 mM L-Glutamine and 0.36% Glucose Gibco 31966-021] medium. […] Luciferase activity was measured as Luminescence in the Wallac Victor reader after 15 min. incubation at room temperature. […]

Compound: CCCCN1C(=S)C(Nc2ccc(OC(F)F)cc2)=C(c2ccccc2)S1(=O)=O [Example 1, 2-Butyl-4-{[4-(difluoromethoxy)phenyl]amino}-5-phenylisothiazole-3(2H)-thione 1,1-dioxide]
- EC50: 960 nM
